Data taken from US20040228820A1, “Compositions comprising an amidine and an alkane polyol” (The Procter & Gamble Company, priority 2003, published 2004).

Experiment: Stabilisation of amidines in aqueous solution by alkane polyols
Excerpt: The compositions of the present invention also comprise an alkane polyol having an N-octanol/water partition coefficient (ClogP) of from +0.2 to +1.55. […] The ClogP values of these materials indicate their hydrophilic/lipophilic balance. Alkane polyols having a ClogP value of between +0.2 and +1.55 are slightly lipophilic, enabling them to interact with the amidines. However, the alkane polyols herein maintain a high enough solubility in water due to the presence of the hydroxy moieties to allow them to maintain the amidine in solution.

Row | SMILES | Stabilises Amidines?
1 | CC(O)CCC(C)O (centres unmarked) [2,5-hexanediol] | No
2 | CCCC(O)CO (centres unmarked) [1,2 Pentanediol] | No
3 | CCCCC(O)CO (centres unmarked) [1,2-hexanediol] | Yes
4 | CCCCCCC(O)CO (centres unmarked) [1,2-octanediol] | Yes
5 | CCCCCC(O)CO (centres unmarked) [1,2-heptanediol] | Yes

The next lines start with the values.

Row | Stabilises Amidines? | SMILES
6 | No | OCCCCCCCCCCO [1,10-decanediol]
7 | Yes | OCCCCCCCCCO [1,9-nonanediol]
8 | Yes | OCCCCCCCO [1,7-heptanediol]
